Source: publication PMC11860776 (Viruses, 2025)
“Also recorded” adds a separate entry of the source. Like-named read-outs stand apart in the source and are kept apart here.

Columns and labels:
[1] = target: T1, mIMPα2ΔIBB:NS1 NLS interaction (Mus musculus, UniProt P52293); experiment: AlphaScreen inhibition assay of the IMPα:NS1-NLS interaction; format: binding
T1 construct: made in house; host or cells: bacteria

B19V [2] = experiment: Antiviral assay: B19V DNA replication by qPCR in UT7/EpoS1 cells; format: cell-based, Human parvovirus B19; settings: for EC50: B19V DNA 48 hpi vs 2 hpi, table: mean (95% CI); for inhibition of viral replication: compounds at 10 μM, 48 hpi vs 2 hpi
UT7/EpoS1 cells = experiment: Cell cytotoxicity assay (alamarBlue HS) in UT7/EpoS1 cells; format: cell-based; settings: for CC50: 6 h + 48 h with compound, alamarBlue, table: mean (95% CI)
B19V [3] = experiment: Antiviral assay: B19V DNA replication by qPCR in EPCs; format: cell-based, Human parvovirus B19; settings: B19V DNA 48 hpi vs 2 hpi, table: mean (95% CI)
EPCs = experiment: Cell cytotoxicity assay (WST-8, CCK-8) in EPCs; format: cell-based, human; settings: for CC50: WST-8 based assay, TLTM: too low to measure; for cell toxicity: every concentration tested
B19V [4] = system: B19V; set-up: method as in earlier work; settings: UT7/EpoS1 cells, IVM at 10 μM; cited from earlier work
[5] = titration 0-5 μM, average ± SD, 4 independent experiments, read-out: IC50

Molecule | EC50 (B19V [2]) | inhibition of viral replication (B19V [2]) | CC50 (UT7/EpoS1 cells) | IC50 [1, 5] | also measured
CO[C@H]1C[C@H](O[C@@H]2/C(C)=C/C[C@@H]3C[C@@H](C[C@]4(CC[C@H](C)[C@@H](C5CCCCC5)O4)O3)OC(=O)[C@@H]3C=C(C)/C(=N/O)[C@H]4OC/C(=C\C=C\[C@@H]2C)[C@]43O)O[C@@H](C)[C@@H]1O [Selamectin] | – | – | – | – | IC50 [1]: 0.0508 ± 0.0029 µM
CC(Nc1nc(N2CCCC2)nc2ccccc12)c1ccccc1 (stereo not shown) [Importazole] | 13.4 µM | inhibited viral replication; also recorded: inhibited viral replication more than IVM | 30 µM | – | –
Emamectin benzoate [Emamectin benozate] | – | – | – | 0.0099 ± 0.003 µM | –
Eprinomectin | 3.2 µM | inhibited viral replication more than IVM | 15.9 µM | 0.0409 ± 0.0099 µM | EC50 (B19V [3]): 6.5 µM; CC50 (EPCs): TLTM; cell toxicity (EPCs): extremely toxic at every concentration tested
Avermectin B1 | 9.8 µM | inhibited viral replication more than IVM | – | 0.0361 ± 0.0177 µM | –
CC[C@H](C)[C@H]1O[C@]2(CC[C@@H]1C)C[C@@H]1C[C@@H](C/C=C(\C)[C@@H](O[C@H]3C[C@H](OC)[C@@H](O[C@H]4C[C@H](OC)[C@@H](O)[C@H](C)O4)[C@H](C)O3)[C@@H](C)/C=C/C=C3\CO[C@@H]4[C@H](O)C(C)=C[C@@H](C(=O)O1)[C@]34O)O2 [IVM, Ivermectin] | 7.6 µM | inhibited viral replication | 14.5 µM | 0.0118 ± 0.004 µM | AlphaScreen counts (mIMPα2ΔIBB:NS1 NLS interaction) ([1]; IVM 10 μM (text; figure legend says 2.5 μM) vs absence): significant reduction; EC50 (B19V [3]): 3.3 µM; inhibition of B19V viral replication (B19V [4]): could inhibit B19V viral replication; CC50 (EPCs): TLTM; cell toxicity (EPCs): extremely toxic at every concentration tested; concentration from which strong inhibition of B19V DNA replication starts (B19V [2]): ≥ 6 µM; concentrations causing significative toxicity (UT7/EpoS1 cells): above 12.5 μM
Milbemycin oxime | – | – | – | 0.0269 ± 0.0159 µM | –
CO/N=C1\C[C@]2(C[C@@H]3C[C@@H](C/C=C(\C)C[C@@H](C)/C=C/C=C4\CO[C@@H]5[C@H](O)C(C)=C[C@@H](C(=O)O3)[C@]45O)O2)O[C@H](/C(C)=C/C(C)C)[C@H]1C [Moxidectin] | – | – | – | 0.0157 ± 0.0012 µM | –
